What all share (type): cell-based
One test has as its system Colo205 (intestine). In words: Inhibition of the proliferation/vitality of tumour cells (Alamar Blue), Colo205. As to conditions: Homo sapiens, COLO 205, 96 h, 4 days cultivation. On the procedure: (§1) The cells are sown in a suitable cell density in microtitre plates (96-well format) and the test substances are added in the form of a concentration series. After four further days of cultivation in serum-containing medium, the tumour cell proliferation/tumour cell vitality can be determined by means of an Alamar Blue test system.
(§2) The cells are cultivated in medium. At intervals of several days, the cells are detached from the culture dishes with the aid of trypsin solution and sown in suitable dilution in fresh medium. The cells are cultivated at 37° Celsius and 10% CO2. […]
(§3) In each case, 20 μl of Alamar Blue reagent are added per well, and the microtitre plates are incubated, for example, for a further seven hours in a CO2 incubator (at 37° C. and 10% CO2). The plates are measured in a reader with a fluorescence filter at a wavelength of 540 nm. […]
(§4) The absorbance value of the medium control (no cells and test substances used) is subtracted from all other absorbance values. The controls (cells without test substance) are set equal to 100 per cent, and all other absorbance values are set in relation thereto (for example in % of control):
(§5) IC50 values (50% inhibition) are determined with the aid of statistics programs, such as, for example, RS1.

The next test concerns A2780 (ovary). Put plainly: Inhibition of the proliferation/vitality of tumour cells (Alamar Blue), A2780. As to conditions: Homo sapiens, 96 h, 4 days cultivation. Here is the method:
as §1
The cells are cultivated in medium. At intervals of several days, the cells are detached from the culture dishes with the aid of trypsin solution and sown in suitable dilution in fresh medium. The cells are cultivated at 37° Celsius and 10% CO2.
A defined number of cells (for example 2000 cells) per culture/well in a volume of 180 μl of culture medium are sown in microtitre plates (96 well cell-culture plates) using a multichannel pipette. The cells are subsequently cultivated in a CO2 incubator (37° C. and 10% CO2).
The test substances are dissolved, for example, in DMSO and subsequently employed in corresponding concentration (if desired in a dilution series) in the cell culture medium. The dilution steps can be adapted depending on the efficiency of the active ingredients and the desired spread of the concentrations. Cell culture medium is added to the test substances in corresponding concentrations. The addition of the test substances to the cells can take place on the same day as the sowing of the cells. To this end, in each case 20 μl of substance solution from the predilution plate are added to the cultures/wells. The cells are cultivated for a further 4 days at 37° Celsius and 10% CO2.
In each case, 20 μl of Alamar Blue reagent are added per well, and the microtitre plates are incubated, for example, for a further seven hours in a CO2 incubator (at 37° C. and 10% CO2). The plates are measured in a reader with a fluorescence filter at a wavelength of 540 nm. The plates can be shaken gently immediately before the measurement.
as §4, §5
Background: The colour change of resazurin is a common sign of viable cells or microbes.

The subject of another test is PC3 (prostate). Put plainly: Inhibition of the proliferation/vitality of tumour cells (Alamar Blue), PC3. As to conditions: Prostate cell, 96 h, 4 days cultivation. On the procedure: as §1, §2, §3, §4, §5
A further test deals with MCF7 (breast). Put plainly: Inhibition of the proliferation/vitality of tumour cells (Alamar Blue), MCF7. As to conditions: Homo sapiens, 96 h, 4 days cultivation. On the procedure:
as §1, §2, §3, §4, §5

The record followed here is patent US8293891B2, “4 (pyrrolopyridinyl)pyrimidin-2-ylamine derivatives” (Merck Patent Gesellschaft mit Beschrankter Haftung, priority 2007, dated 2012).

In the case of `c1ccc(Nc2nccc(-c3c[nH]c4ccncc34)n2)cc1` [Compound A1, phenyl[4-(1H-pyrrolo[3,2-c]pyridin-3-yl)pyrimidin-2-yl]-amine], the IC50 in the test on Colo205 (intestine), with A2780 (ovary), with PC3 (prostate) and with MCF7 (breast) was 10 to 1000 nM throughout.

Consider `Cc1ccccc1Nc1nccc(-c2c[nH]c3ccncc23)n1` [Compound A6, [4-(1H-pyrrolo-[3,2-c]pyridin-3-yl)pyrimidin-2-yl]-o-tolyl-amine], for which the IC50 in the test on A2780 (ovary) was 1000 to 10000 nM. Same read-out and setting: the figure for `Fc1cccc(Nc2nccc(-c3c[nH]c4ccncc34)n2)c1` [Compound A7] is 10 to 1000 nM; for `COc1ccc(Nc2nccc(-c3c[nH]c4ccncc34)n2)cc1` [Compound A8] it is 1000 to 10000 nM.

As usually defined, the IC50 is the midpoint of a concentration-inhibition curve. A high value points to weaker potency.
